{
  "source": "patent US20250042911A1",
  "about": "“NOVEL BENZOPYRAN DERIVATIVE AND USE THEREOF” (SPARK BIOPHARMA, INC, priority 2021, published 2025)",
  "system": "human M2 macrophages",
  "experiment": "Inhibition of human M2 macrophage activity, hCCL22 in culture supernatant by ELISA",
  "format": "cell-based",
  "settings": "for EC50: hCCL22 secretion, THP-1 derived M2-like macrophages, compound present during 72 hours of differentiation; for inhibition at 10 µM: Macrophage, hCCL22 inhibitory activity at 10 μM, 72 hours",
  "protocol": "To obtain human M2 macrophages, human monocytes (THP-1 monocyte, CD4 expression) were stabilized in a 96-well plate for 24 hours and then incubated in culture media containing 100 ng/mL phorbal 12-myristate-13-acetate (PMA; Sigma, P8139) for 24 hours to differentiate into M0 macrophages (macrophage-like phenotype). It was confirmed that differentiated M0 macrophages had reduced CD4 expression and expressed CD11b. M0 macrophages in the plate well were washed once with culture media and incubated in culture media containing 25 ng/mL hIL-4 (Peprotech, 200-04-50) and 25 ng/mL hIL-13 (Peprotech, 200-13-50) for 72 hours to differentiate into M2-like macrophages. Test compounds were diluted by concentration in M2 differentiation media and treated simultaneously during a differentiation period of 72 hours. The inhibitory effect of the test compounds on M2 macrophages was determined by measuring hCCL22 in the medium culture supernatant cultured for 72 hours using an ELISA assay (R&D system, DMD00). The results of the activity measurements are represented in Table 3 (EC50), Table 4 ([…] inhibitory activity at 5 μM) and Table 5 (hCCL22 inhibitory activity at 10 μM).",
  "note": "Structures can show the parent of a compound that is named as a salt.",
  "data": [
    {"smiles": "CN1CCN(c2ccc3c(c2)OC(C)(C)C2=CCn4c(=O)n(-c5ccc(C(C)(C)C)cc5)c(=O)n4C23)CC1", "note": "(centres unmarked) [Example 48, 2-(4-(tert-butyl)phenyl)-7,7-dimethyl-10-(4-methylpiperazin-1-yl)-5,12b-dihydro-1H,7H-chromeno[4,3-c][1,2,4]triazolo[1,2-a]pyridazine-1,3(2H)-dione]", "values": [
      {"measurement": "EC50", "value": 9.7, "unit": "µM"}
    ]},
    {"smiles": "CC(=O)c1ccc(-n2c(=O)n3n(c2=O)C2C(=CC3)C(C)(C)Oc3cc(OCP(=O)(O)O)ccc32)cc1", "note": "(centres unmarked) [Example 115, disodium (((2-(4-acetylphenyl)-7,7-dimethyl-1,3-dioxo-2,3,5,12b-tetrahydro-1H,7H-chromeno[4,3-c][1,2,4]triazolo[1,2-a]pyridazin-10-yl)oxy)methyl)phosphonate]", "values": [
      {"measurement": "EC50", "value": "> 80", "unit": "µM"}
    ]},
    {"smiles": "CC1(C)Oc2cc(OP(=O)(O)O)ccc2C2C1=CCn1c(=O)n(-c3ccc(C(C)(C)C)cc3)c(=O)n12", "note": "(centres unmarked) [Example 144, 2-(4-(tert-butyl)phenyl)-7,7-dimethyl-1,3-dioxo-2,3,5,12b-tetrahydro-1H,7H-chromeno[4,3-c][1,2,4]triazolo[1,2-a]pyridazin-10-yl dihydrogen phosphate]", "values": [
      {"measurement": "EC50", "value": 5.4, "unit": "µM"}
    ]},
    {"smiles": "CC(=O)c1ccc(-n2c(=O)n3n(c2=O)C2C(=CC3)C(C)(C)Oc3cc(NS(N)(=O)=O)ccc32)cc1", "note": "(centres unmarked) [Example 9, N-(2-(4-acetylphenyl)-7,7-dimethyl-1,3-dioxo-2,3,5,12b-tetrahydro-1H,7H-chromeno[4,3-c][1,2,4]triazolo[1,2-a]pyridazin-10-yl)sulfuric diamide]", "values": [
      {"measurement": "inhibition at 10 µM", "value": 74.8, "unit": "%"}
    ]},
    {"smiles": "CNc1c(Cl)cc2c(c1Cl)OC(C)(C)C1=CCn3c(=O)n(-c4ccc(C(C)=O)cc4)c(=O)n3C12", "note": "(centres unmarked) [Example 36, 2-(4-acetylphenyl)-9,11-dichloro-7,7-dimethyl-10-(methylamino)-5,12b-dihydro-1H,7H-chromeno[4,3-c][1,2,4]triazolo[1,2-a]pyridazine-1,3(2H)-dione]", "values": [
      {"measurement": "EC50", "value": 10.8, "unit": "µM"}
    ]},
    {"smiles": "CCNc1ccc2c(c1)OC(C)(C)C1=CCn3c(=O)n(-c4ccc(C(C)=O)cc4)c(=O)n3C12", "note": "(centres unmarked) [Example 16, 2-(4-acetylphenyl)-10-(ethylamino)-7,7-dimethyl-5,12b-dihydro-1H,7H-chromeno[4,3-c][1,2,4]triazolo[1,2-a]pyridazine-1,3(2H)-dione]", "values": [
      {"measurement": "inhibition at 10 µM", "value": 79.9, "unit": "%"},
      {"measurement": "EC50", "value": 4, "unit": "µM"}
    ]},
    {"smiles": "CC(=O)c1ccc(-n2c(=O)n3n(c2=O)C2C(=CC3)C(C)(C)Oc3cc(N4CCN(S(C)(=O)=O)CC4)ccc32)cc1", "note": "(centres unmarked) [Example 52, 2-(4-acetylphenyl)-7,7-dimethyl-10-(4-(methylsulfonyl)piperazin-1-yl)-5,12b-dihydro-1H,7H-chromeno[4,3-c][1,2,4]triazolo[1,2-a]pyridazine-1,3(2H)-dione]", "values": [
      {"measurement": "EC50", "value": 26.4, "unit": "µM"}
    ]},
    {"smiles": "CC(=O)c1ccc(-n2c(=O)n3n(c2=O)C2C(=CC3)C(C)(C)Oc3c2cc(Cl)c(NC(C)C)c3Cl)cc1", "note": "(centres unmarked) [Example 37, 2-(4-acetylphenyl)-9,11-dichloro-10-(isopropylamino)-7,7-dimethyl-5,12b-dihydro-1H,7H-chromeno[4,3-c][1,2,4]triazolo[1,2-a]pyridazine-1,3(2H)-dione]", "values": [
      {"measurement": "EC50", "value": 14.7, "unit": "µM"}
    ]},
    {"smiles": "CC(=O)c1ccc(-n2c(=O)n3n(c2=O)C2C(=CC3)C(C)(C)Oc3cc(OC(=O)N4C(C)CN(C(=O)[C@@H]5CCCN5)CC4C)ccc32)cc1", "note": "(some centres unmarked) [Example 101, 2-(4-acetylphenyl)-7,7-dimethyl-1,3-dioxo-2,3,5,12b-tetrahydro-1H,7H-chromeno[4,3-c][1,2,4]triazolo[1,2-a]pyridazin-10-yl 2,6-dimethyl-4-prolylpiperazine-1-carboxylate hydrochloride]", "values": [
      {"measurement": "EC50", "value": 17.9, "unit": "µM"}
    ]},
    {"smiles": "CC(C)(C)OC(=O)N1CCN(C(=O)c2ccc(-n3c(=O)n4n(c3=O)C3C(=CC4)C(C)(C)Oc4cc(O)ccc43)cc2)CC1", "note": "(centres unmarked) [Example 54, tert-butyl 4-(4-(10-hydroxy-7,7-dimethyl-1,3-dioxo-5,12b-dihydro-1H,7H-chromeno[4,3-c][1,2,4]triazolo[1,2-a]pyridazin-2(3H)-yl)benzoyl)piperazine-1-carboxylate]", "values": [
      {"measurement": "EC50", "value": 1.5, "unit": "µM"}
    ]},
    {"smiles": "CC(=O)c1ccc(-n2c(=O)n3n(c2=O)C2C(=CC3)C(C)(C)Oc3cc(N(C)C(C)C)ccc32)cc1", "note": "(centres unmarked) [Example 45, 2-(4-acetylphenyl)-10-(isopropyl(methyl)amino)-7,7-dimethyl-5,12b-dihydro-1H,7H-chromeno[4,3-c][1,2,4]triazolo[1,2-a]pyridazine-1,3(2H)-dione]", "values": [
      {"measurement": "EC50", "value": 9.1, "unit": "µM"}
    ]},
    {"smiles": "CC(=O)c1ccc(-n2c(=O)n3n(c2=O)C2C(=CC3)C(C)(C)Oc3cc(N)ccc32)cc1", "note": "(centres unmarked) [Example 7, 2-(4-acetylphenyl)-10-amino-7,7-dimethyl-5,12b-dihydro-1H,7H-chromeno[4,3-c][1,2,4]triazolo[1,2-a]pyridazine-1,3(2H)-dione]", "values": [
      {"measurement": "inhibition at 10 µM", "value": 83.4, "unit": "%"},
      {"measurement": "EC50", "value": 4.5, "unit": "µM"}
    ]},
    {"smiles": "CC(=O)c1ccc(-n2c(=O)n3n(c2=O)C2C(=CC3)C(C)(C)Oc3cc(-c4nc(C)sc4C)ccc32)cc1", "note": "(centres unmarked) [Example 39, 2-(4-acetylphenyl)-10-(2,5-dimethylthiazol-4-yl)-7,7-dimethyl-5,12b-dihydro-1H,7H-chromeno[4,3-c][1,2,4]triazolo[1,2-a]pyridazine-1,3(2H)-dione]", "values": [
      {"measurement": "EC50", "value": 73.1, "unit": "µM"}
    ]},
    {"smiles": "CC(=O)c1ccc(-n2c(=O)n3n(c2=O)C2C(=CC3)C(CF)(CF)Oc3cc(O)ccc32)cc1", "note": "(centres unmarked) [Example 2, 2-(4-acetylphenyl)-7,7-bis(fluoromethyl)-10-hydroxy-5,12b-dihydro-1H,7H-chromeno[4,3-c][1,2,4]triazolo[1,2-a]pyridazine-1,3(2H)-dione]", "values": [
      {"measurement": "inhibition at 10 µM", "value": 64.4, "unit": "%"}
    ]},
    {"smiles": "CC1(C)Oc2cc(OP(=O)(O)O)ccc2C2C1=CCn1c(=O)n(-c3ccc(C(F)(F)F)cc3)c(=O)n12", "note": "(centres unmarked) [Example 142, 7,7-dimethyl-1,3-dioxo-2-(4-(trifluoromethyl)phenyl)-2,3,5,12b-tetrahydro-1H,7H-chromeno[4,3-c][1,2,4]triazolo[1,2-a]pyridazin-10-yl dihydrogen phosphate]", "values": [
      {"measurement": "EC50", "value": 6.3, "unit": "µM"}
    ]},
    {"smiles": "CC(=O)c1ccc(-n2c(=O)n3n(c2=O)C2C(=CC3)C(C)(C)Oc3cc(N4CCCC4)ccc32)cc1", "note": "(centres unmarked) [Example 34, 2-(4-acetylphenyl)-7,7-dimethyl-10-(pyrrolidin-1-yl)-5,12b-dihydro-1H,7H-chromeno[4,3-c][1,2,4]triazolo[1,2-a]pyridazine-1,3(2H)-dione]", "values": [
      {"measurement": "inhibition at 10 µM", "value": 73.7, "unit": "%"},
      {"measurement": "EC50", "value": 7.7, "unit": "µM"}
    ]},
    {"smiles": "CN(C)C(=O)Oc1ccc2c(c1)OC(C)(C)C1=CCn3c(=O)n(-c4ccc(C(C)(C)C)cc4)c(=O)n3C12", "note": "(centres unmarked) [Example 147, 2-(4-(tert-butyl)phenyl)-7,7-dimethyl-1,3-dioxo-2,3,5,12b-tetrahydro-1H,7H-chromeno[4,3-c][1,2,4]triazolo[1,2-a]pyridazin-10-yl dimethylcarbamate]", "values": [
      {"measurement": "EC50", "value": "> 80", "unit": "µM"}
    ]},
    {"smiles": "CCn1nc(C)c(-c2ccc3c(c2)OC(C)(C)C2=CCn4c(=O)n(-c5ccc(C(C)=O)cc5)c(=O)n4C23)c1C", "note": "(centres unmarked) [Example 40, 2-(4-acetylphenyl)-10-(1-ethyl-3,5-dimethyl-1H-pyrazol-4-yl)-7,7-dimethyl-5,12b-dihydro-1H,7H-chromeno[4,3-c][1,2,4]triazolo[1,2-a]pyridazine-1,3(2H)-dione]", "values": [
      {"measurement": "EC50", "value": 53.8, "unit": "µM"}
    ]},
    {"smiles": "CC(=O)c1ccc(-n2c(=O)n3n(c2=O)C2C(=CC3)C(C)(C)Oc3c2cc(Cl)c(N)c3Cl)cc1", "note": "(centres unmarked) [Example 31, 2-(4-acetylphenyl)-10-amino-9,11-dichloro-7,7-dimethyl-5,12b-dihydro-1H,7H-chromeno[4,3-c][1,2,4]triazolo[1,2-a]pyridazine-1,3(2H)-dione]", "values": [
      {"measurement": "inhibition at 10 µM", "value": 97.2, "unit": "%"},
      {"measurement": "EC50", "value": 2, "unit": "µM"}
    ]}
  ]
}
